Patent publication US5714127A, “System for multiple simultaneous synthesis” (Warner-Lambert Company, priority 1995, dated 1998)

These compounds were tested against benzodiazepine receptor (assay: benzodiazepine receptor binding assay (NovaScreen), [3H]Flunitrazipam radioligand). Details: commercially available reference samples (Table 3 footnote).
Parameters: species or system bovine
Text: After the final compounds are formed using the inventive reaction apparatus, method and system, they are individually tested for biological activity once they are isolated. For example, the method of Sweetnam, et al, Molecular Pharmacology 1986; 29:299 employing bovine cortical membranes as a receptor source and a radiolabeled benzodiazepine, such as Flunitrazepam, to determine competitive ligand binding to the benzodiazepine receptor (central [brain] localized) and some quantitative measure of relative binding potency such as KD or IC50 values. Performing this type of assay serves two purposes: 1) to discover new compounds with biological activity in a given biological screening assay and 2) the development of a relationship between the structural variations contained within the series and biological potency. This second utility is known as development of a structure activity relationship (SAR). This type of assay can be done using the compounds isolated from the array synthesis for any receptor binding screen or assay (screening for receptor agonists or antagonists), enzyme functional assays (measuring competitive or noncompetitive inhibition of the catalyzed reaction), and the like. This strategy may be used to screen for pharmaceutical agents, veterinary agents, agricultural agents, diagnostic reagents, and the like.
To verify that the compounds produced could be used directly in a biological assay, the crude benzodiazepines are tested for activity in a benzodiazepine receptor binding assay without further purification. (The assay was performed using the commercially available NovaScreen® assay system contracted by Scios-Nova Pharmaceutical Corp., Baltimore, Md., whereby bovine cortical membrane preparations were used as the source of receptor and the radioligand employed was [^3 H]Flunitrazipam while the positive control was Clonazepam.) The calculated IC50 's from three concentrations (average of two determinations) for the individual compounds are shown in Table 3.

Row | SMILES | IC50
1 | CN1C(=O)CN=C(c2ccccc2)c2cc(Cl)ccc21 [Diazepam, reference compound] | 0.00067 µM

Same assay, conditions: crude benzodiazepines without further purification; bovine cortical membranes; [3H]Flunitrazipam; calculated from three concentrations (average of two determinations)

Row | SMILES | IC50
2 | CC1N=C(c2ccccc2)c2ccccc2NC1=O (stereo not drawn) [Number 1] | 5.79 µM
3 | CC1N=C(c2ccccc2)c2cc(Cl)ccc2NC1=O (stereo not drawn) [Number 2] | 0.089 µM
4 | CC1N=C(c2ccccc2)c2cc([N+](=O)[O-])ccc2NC1=O (stereo not drawn) [Number 4] | 0.482 µM
5 | CC1N=C(c2ccccc2)c2cc([N+](=O)[O-])ccc2N(C)C1=O (stereo not drawn) [Number 6] | 1 µM
6 | CC1N=C(c2cccs2)c2ccccc2NC1=O (stereo not drawn) [Number 8] | 5.9 µM
7 | O=C1CN=C(c2ccccc2)c2ccccc2N1 [Number 9] | 0.515 µM
8 | O=C1CN=C(c2ccccc2)c2cc(Cl)ccc2N1 [Number 10] | 0.032 µM
9 | COc1ccc(C2=NCC(=O)Nc3ccccc32)cc1 [Number 11] | 28.3 µM
10 | O=C1CN=C(c2ccccc2)c2cc([N+](=O)[O-])ccc2N1 [Number 12] | 0.016 µM
11 | Cc1ccc2c(c1)N(C(C)C)C(=O)CN=C2c1ccccc1 [Number 13] | 18.6 µM
12 | CN1C(=O)CN=C(c2ccccc2)c2cc([N+](=O)[O-])ccc21 [Number 14] | 0.064 µM
13 | O=C1CN=C(C2CCCCC2)c2ccccc2N1 [Number 15] | 25.7 µM
14 | O=C1CN=C(c2cccs2)c2ccccc2N1 [Number 16] | 1.12 µM
15 | O=C1Nc2ccc([N+](=O)[O-])cc2C(c2ccccc2)=NC1Cc1c[nH]c2ccccc12 (stereo not drawn) [Number 20] | 12.7 µM

Same assay, conditions: crude benzodiazepines without further purification; bovine cortical membranes; [3H]Flunitrazipam; cells that print their own unit mM

Row | SMILES | IC50
16 | COc1ccc(C2=NC(C)C(=O)Nc3ccccc32)cc1 (stereo not drawn) [Number 3] | > 1000 µM
17 | Cc1ccc2c(c1)N(C(C)C)C(=O)C(C)N=C2c1ccccc1 (stereo not drawn) [Number 5] | > 1000 µM
18 | CC1N=C(C2CCCCC2)c2ccccc2NC1=O (stereo not drawn) [Number 7] | > 1000 µM
19 | O=C1Nc2ccccc2C(c2ccccc2)=NC1Cc1c[nH]c2ccccc12 (stereo not drawn) [Number 17] | > 1000 µM
20 | O=C1Nc2ccc(Cl)cc2C(c2ccccc2)=NC1Cc1c[nH]c2ccccc12 (stereo not drawn) [Number 18] | > 1000 µM
21 | COc1ccc(C2=NC(Cc3c[nH]c4ccccc34)C(=O)Nc3ccccc32)cc1 (stereo not drawn) [Number 19] | > 1000 µM
